ChEMBL document CHEMBL1201862, “PubChem BioAssay data set” (2004)
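Interpolation was linear, between the two tested concentrations surrounding the appropriate level; five concentrations were tested over 48 hours in 96-well plates. GI50 = concentration required for 50% inhibition of growth.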 Activity calls are given as the source filed them. No stated cut-off is given here; in the data, active = GI50 up to about 1.1 µM and inactive = higher.

Legend:
Experiment in all cases: growth of human tumour cells (NCI), 48 h
ACHN = system: ACHN
NCI-H226 = system: NCI-H226
SK-MEL-28 = system: SK-MEL-28
RXF 393 = system: RXF 393
UACC-257 = system: UACC-257
SR = system: SR
Malme-3M = system: Malme-3M
NCI-H23 = system: NCI-H23
OVCAR-8 = system: OVCAR-8
IGROV-1 = system: IGROV-1
RPMI-8226 = system: RPMI-8226
SK-MEL-2 = system: SK-MEL-2
NCI-H522 = system: NCI-H522
M14 = system: M14
OVCAR-3 = system: OVCAR-3
LOX IMVI = system: LOX IMVI
U-251 = system: U-251
SF-268 = system: SF-268
EKVX = system: EKVX
SN12C = system: SN12C
CCRF-CEM = system: CCRF-CEM
A498 = system: A498
DMS-114 = system: DMS-114
786-0 = system: 786-0
LXFL 529 = system: LXFL 529
SF-295 = system: SF-295
K562 = system: K562
SK-MEL-5 = system: SK-MEL-5
HT-29 = system: HT-29
SF-539 = system: SF-539
OVCAR-4 = system: OVCAR-4
NCI-H460 = system: NCI-H460
SNB-19 = system: SNB-19
TK-10 = system: TK-10
HOP-62 = system: HOP-62
SNB-78 = system: SNB-78
COLO 205 = system: COLO 205
KM-20L2 = system: KM-20L2
SNB-75 = system: SNB-75
HCT-116 = system: HCT-116
A549 = system: A549
MOLT-4 = system: MOLT-4
DMS-273 = system: DMS-273
UO-31 = system: UO-31
HCT-15 = system: HCT-15
HL-60 = system: HL-60
HOP-18 = system: HOP-18
SW-620 = system: SW-620
SK-OV-3 = system: SK-OV-3
CAKI-1 = system: CAKI-1
KM12 = system: KM12
OVCAR-5 = system: OVCAR-5
HOP-92 = system: HOP-92
UACC-62 = system: UACC-62
HCC 2998 = system: HCC 2998
M19-MEL = system: M19-MEL
DLD-1 = system: DLD-1
XF498 = system: XF498

COC(=O)C(=O)C(CC(=O)Nc1cc(Cl)ccc1Cl)C(=O)OC (stereo not drawn) was tested, and the GI50 (ACHN) was > 100 µM (inactive), the GI50 (NCI-H226) was > 100 µM (inactive) and the GI50 (SK-MEL-28) was > 100 µM (inactive). For the same compound, the GI50 (RXF 393) was > 100 µM (inactive), the GI50 (UACC-257) was > 100 µM (inactive) and the GI50 (SR) was > 100 µM (inactive). The GI50 (Malme-3M) was > 100 µM (inactive), the GI50 (NCI-H23) was > 100 µM (inactive) and the GI50 (OVCAR-8) was > 100 µM (inactive). The GI50 (IGROV-1) was > 100 µM (inactive), the GI50 (RPMI-8226) was > 100 µM (inactive) and the GI50 (SK-MEL-2) was > 100 µM (inactive). For the same compound, the GI50 (NCI-H522) was > 100 µM (inactive), the GI50 (M14) was > 100 µM (inactive) and the GI50 (OVCAR-3) was > 100 µM (inactive). For the same compound, the GI50 (LOX IMVI) was > 100 µM (inactive), the GI50 (U-251) was > 100 µM (inactive) and the GI50 (SF-268) was > 100 µM (inactive). For the same compound, the GI50 (EKVX) was > 100 µM (inactive), the GI50 (SN12C) was > 100 µM (inactive) and the GI50 (CCRF-CEM) was > 100 µM (inactive). The GI50 (A498) was > 100 µM (inactive), the GI50 (DMS-114) was > 100 µM (inactive) and the GI50 (786-0) was > 100 µM (inactive). The GI50 (LXFL 529) was > 100 µM (inactive), the GI50 (SF-295) was > 100 µM (inactive) and the GI50 (K562) was > 100 µM (inactive). The GI50 (SK-MEL-5) was > 100 µM (inactive), the GI50 (HT-29) was > 100 µM (inactive) and the GI50 (SF-539) was > 100 µM (inactive). For the same compound, the GI50 (OVCAR-4) was > 100 µM (inactive), the GI50 (NCI-H460) was > 100 µM (inactive) and the GI50 (SNB-19) was > 100 µM (inactive). For the same compound, the GI50 (TK-10) was > 100 µM (inactive), the GI50 (HOP-62) was > 100 µM (inactive) and the GI50 (SNB-78) was > 100 µM (inactive). For the same compound, the GI50 (COLO 205) was > 100 µM (inactive), the GI50 (KM-20L2) was > 100 µM (inactive) and the GI50 (SNB-75) was > 100 µM (inactive). For the same compound, the GI50 (HCT-116) was > 100 µM (inactive), the GI50 (A549) was > 100 µM (inactive) and the GI50 (MOLT-4) was > 100 µM (inactive). For the same compound, the GI50 (DMS-273) was > 100 µM (inactive), the GI50 (UO-31) was > 100 µM (inactive) and the GI50 (HCT-15) was greater than 100 µM. For the same compound, the GI50 (HL-60) was > 100 µM (inactive), the GI50 (HOP-18) was > 100 µM (inactive) and the GI50 (SW-620) was > 100 µM (inactive). The GI50 (SK-OV-3) was > 100 µM (inactive), the GI50 (CAKI-1) was > 100 µM (inactive) and the GI50 (KM12) was > 100 µM (inactive). For the same compound, the GI50 (OVCAR-5) was > 100 µM (inactive), the GI50 (HOP-92) was > 100 µM (inactive) and the GI50 (UACC-62) was > 100 µM (inactive). For the same compound, the GI50 (HCC 2998) was > 100 µM (inactive).

In the case of COc1ccc(/C=N/Nc2nc(C)c3c(n2)Nc2ccccc2NC3=O)cc1, the GI50 (ACHN) is reported as > 100 µM (inactive), the GI50 (NCI-H226) is reported as > 100 µM (inactive) and the GI50 (SK-MEL-28) is reported as > 100 µM (inactive). The GI50 (SR) was > 100 µM (inactive), the GI50 (Malme-3M) was > 100 µM (inactive) and the GI50 (NCI-H23) was > 100 µM (inactive). The GI50 (M19-MEL) was > 100 µM (inactive), the GI50 (IGROV-1) was > 100 µM (inactive) and the GI50 (RPMI-8226) was > 100 µM (inactive). For the same compound, the GI50 (SK-MEL-2) was > 100 µM (inactive), the GI50 (NCI-H522) was > 100 µM (inactive) and the GI50 (M14) was > 100 µM (inactive). For the same compound, the GI50 (DLD-1) was > 100 µM (inactive), the GI50 (SF-268) was > 100 µM (inactive) and the GI50 (SN12C) was > 100 µM (inactive). For the same compound, the GI50 (XF498) was > 100 µM (inactive), the GI50 (CCRF-CEM) was > 100 µM (inactive) and the GI50 (A498) was > 100 µM (inactive). The GI50 (DMS-114) was > 100 µM (inactive), the GI50 (786-0) was > 100 µM (inactive) and the GI50 (LXFL 529) was 76.7 µM (inactive). The GI50 (K562) was > 100 µM (inactive), the GI50 (SF-539) was > 100 µM (inactive) and the GI50 (OVCAR-4) was > 100 µM (inactive). For the same compound, the GI50 (HOP-62) was > 100 µM (inactive), the GI50 (SNB-78) was > 100 µM (inactive) and the GI50 (COLO 205) was > 100 µM (inactive). The GI50 (SNB-75) was 42.6 µM (inactive), the GI50 (HCT-116) was > 100 µM (inactive) and the GI50 (MOLT-4) was > 100 µM (inactive). The GI50 (DMS-273) was > 100 µM (inactive), the GI50 (UO-31) was > 100 µM (inactive) and the GI50 (HL-60) was > 100 µM (inactive). For the same compound, the GI50 (SK-OV-3) was > 100 µM (inactive), the GI50 (CAKI-1) was > 100 µM (inactive) and the GI50 (HOP-92) was > 100 µM (inactive). For the same compound, the GI50 (UACC-62) was > 100 µM (inactive) and the GI50 (HCC 2998) was > 100 µM (inactive).
